Data on 7 compounds can be found in patent publication US11254690B2, “PTEFb inhibiting macrocyclic compounds” (BAYER AKTIENGESELLSCHAFT, priority 2017, dated 2022).

Common to all, as to type: cell-based
Assay [1] relates to HeLa cells. As to the kind of experiment: Proliferation assay, HeLa. As to conditions: Homo sapiens, 96 h, 4 days, crystal violet, read-out: Inhibition of HeLa cell proliferation IC50. As for the experimental part:
(§1) Cultivated tumour cells (HeLa, human cervical tumour cells, ATCC CCL-2; NCI-H460, human non-small cell lung carcinoma cells, ATCC HTB-177; DU 145, hormone-independent human prostate carcinoma cells, ATCC HTB-81; HeLa-MaTu-ADR, multidrug-resistant human cervical carcinoma cells, EPO-GmbH Berlin; Caco-2, human colorectal carcinoma cells, ATCC HTB-37; B16F10, mouse melanoma cells, ATCC CRL-6475) were plated at a density of 5,000 cells/well (DU145, HeLa-MaTu-ADR), 3,000 cells/well (NCI-H460, HeLa), 1,500 cells/well (Caco-2), or 1,000 cells/well (B16F10) in a 96-well multititer plate in 200 μL of their respective growth medium supplemented 10% fetal calf serum. After 24 hours, the cells of one plate (zero-point plate) were stained with crystal violet (see below), while the medium of the other plates was supplemented with the test substances in various concentrations (0 μM, as well as in the range of 0.0001-10 μM; the final concentration of the solvent dimethyl sulfoxide was adjusted to 0.1%) using a Hewlett-Packard HP D300 Digital Dispenser. The cells were incubated for 4 days in the presence of test substances. Cell proliferation was determined by staining the cells with crystal violet: the cells were fixed by adding 20 μl/measuring point of an 11% glutaric aldehyde solution for 15 minutes at room temperature. After three washing cycles of the fixed cells with water, the plates were dried at room temperature. The cells were stained by adding 100 μl/measuring point of a 0.1% crystal violet solution (pH 3.0). After three washing cycles of the stained cells with water, the plates were dried at room temperature. The dye was dissolved by adding 100 μl/measuring point of a 10% acetic acid solution. The extinction was determined by photometry at a wavelength of 595 nm. The change of cell number, in percent, was calculated by normalization of the measured values to the extinction values of the zero-point plate (=0%) and the extinction of the untreated ([…]) cells (=100%). The IC50 values (inhibitory concentration at 50% of maximal effect) were determined by means of a 4 parameter fit. A2780 human ovarian carcinoma cells (ECACC #93112519) and non-adherent MOLM-13 human acute myeloid leukemia cells (DSMZ ACC 554) were seeded at a density of 3,000 cell/well (A2780) or 5,000 cells/well (MOLM-13) in a 96-well multititer plate in 150 μL of growth medium supplemented 10% fetal calf serum. After 24 hours, cell viability of one plate (zero-point plate) was determined with the Cell Titre-Glo Luminescent Cell Viability Assay (Promega), while the medium of the other plates was supplemented with the test substances in various concentrations (0 μM, as well as in the range of 0.0001-10 μM; the final concentration of the solvent dimethyl sulfoxide was adjusted to 0.1%) using a Hewlett-Packard HP D300 Digital Dispenser. Cell viability was assessed after 72-hour exposure with the Cell Titre-Glo Luminescent Cell Viability Assay (Promega). IC50 values (inhibitory concentration at 50% of maximal effect) were determined by means of a 4 parameter fit on measurement data which were normalized to vehicle (DMSO) treated cells (=100%) and measurement readings taken immediately before compound exposure (=0%).

Assay [2] concerns HeLa-MaTu-ADR cells. Description: Proliferation assay, HeLa-MaTu-ADR. As to conditions: Homo sapiens, 96 h; 4 days, crystal violet; read-out: Inhibition of HeLa-MaTu-ADR cell proliferation IC50. Here is the method: as §1
Assay [3] concerns DU145 cells. As to the kind of experiment: Proliferation assay, DU145. The note with it: Homo sapiens, DU-145, 96 h; 4 days, crystal violet; read-out: Inhibition of DU145 cell proliferation IC50. As for the experimental part:
as §1

Assay [4] concerns Caco-2 cells. Description: Proliferation assay, Caco-2. As to conditions: Homo sapiens, Caco-2, 96 h; 4 days, crystal violet; read-out: Inhibition of Caco-2 cell proliferation IC50. As for the experimental part:
as §1

Assay [5] relates to MOLM-13 cells. As to the kind of experiment: Proliferation assay, MOLM-13. As to conditions: Homo sapiens, 72-hour exposure, Cell Titre-Glo, read-out: Inhibition of MOLM-13 cell proliferation IC50. Here is the method: as §1

In the case of `CS(=N)(=O)Cc1cc2cc(c1)OCCCCOc1cc(ccc1F)-c1nc(ncc1F)N2` (racemic) [Example 4, (rac)-3,20-difluoro-10-[(S-methylsulfonimidoyl)methyl]-13,18-dioxa-5,7,25-triazatetracyclo[17.3.1.1^2,6.1^8,12]pentacosa-1(23),2(25),3,5,8(24),9,11,19,21-nonaene], the IC50 was determined as 0.15 µM in assay [1]; 0.14 µM in assay [2]; 0.138 µM in assay [3]; 0.177 µM in assay [4]; 0.02 µM in assay [5].

In the case of `CS(=N)(=O)Cc1cc2cc(c1)OCCCCOc1c(F)ccc(c1F)-c1nc(ncc1F)N2` (racemic) [Example 8, (rac)-3,20,23-trifluoro-10-[(S-methylsulfonimidoyl)methyl]-13,18-dioxa-5,7,25-triazatetracyclo[17.3.1.1^2,6.1^8,12]pentacosa-1(23),2(25),3,5,8(24),9,11,19,21-nonaene], the IC50 is 0.177 µM in assay [1]; 0.179 µM in assay [2]; 0.196 µM in assay [3]; 0.181 µM in assay [4]; 0.045 µM in assay [5].

Regarding `CC(C)(C)OC(=O)N=S(C)(=O)Cc1cc2cc(c1)OCCCCOc1cc(ccc1F)-c1nc(ncc1F)N2` (racemic) [Example 3, (rac)-tert-butyl [{[3,20-difluoro-13,18-dioxa-5,7,25-triazatetracyclo[17.3.1.1^2,6.1^8,12]pentacosa-1(23),2(25),3,5,8(24),9,11,19,21-nonaen-10-yl]methyl}(methyl)oxido-λ^6-sulfanylidene]carbamate], the IC50 in assay [1] was determined as 0.244 µM; in assay [2] it was 0.218 µM; in assay [3], 0.206 µM; in assay [4], 0.163 µM; in assay [5] it was 0.108 µM.

Regarding `CC(C)(C)OC(=O)N=S(C)(=O)Cc1cc2cc(c1)OCCCCCOc1cc(ccc1F)-c1nc(ncc1F)N2` (racemic) [Example 5, (rac)-tert-butyl [{[3,21-difluoro-13,19-dioxa-5,7,26-triazatetracyclo[18.3.1.1^2,6.1^8,12]hexacosa-1(24),2(26),3,5,8(25),9,11,20,22-nonaen-10-yl]methyl}(methyl)oxido-λ^6-sulfanylidene]carbamate], the IC50 came out at 0.964 µM in assay [1]; 1 µM in assay [2]; 0.585 µM in assay [3]; 0.658 µM in assay [4]; 0.228 µM in assay [5].

For `CS(=N)(=O)Cc1cc2cc(c1)OCCCCCOc1cc(ccc1F)-c1nc(ncc1F)N2` (racemic) [Example 6, (rac)-3,21-difluoro-10-[(S-methylsulfonimidoyl)methyl]-13,19-dioxa-5,7,26-triazatetracyclo[18.3.1.1^2,6.1^8,12]hexacosa-1(24),2(26),3,5,8(25),9,11,20,22-nonaene], the IC50 in assay [1] was found to be 0.199 µM; in assay [2] it was 0.169 µM; in assay [3] it was 0.121 µM; in assay [4], 0.144 µM; in assay [5], 0.14 µM.

As to `CS(=N)(=O)Cc1cc2nc(c1)OCCCCOc1cc(ccc1F)-c1cc(ncc1F)N2` (racemic) [Example 2, (rac)-3,20-difluoro-10-[(S-methylsulfonimidoyl)methyl]-13,18-dioxa-5,7,24-triazatetracyclo[17.3.1.1^2,6.1^8,12]pentacosa-1(23),2(25),3,5,8(24),9,11,19,21-nonaene], the IC50 in assay [1] is 0.09 µM; in assay [2] it was 0.078 µM; in assay [3] it was 0.085 µM; in assay [4], 0.096 µM; in assay [5], 0.027 µM.

With `CS(=N)(=O)Cc1cc2cc(c1)OCCCOc1cc(ccc1F)-c1nc(ncc1F)N2` (racemic) [Example 10, (rac)-3,19-difluoro-10-[(S-methylsulfonimidoyl)methyl]-13,17-dioxa-5,7,24-triazatetracyclo[16.3.1.1^2,6.1^8,12]tetracosa-1(22),2(24),3,5,8(23),9,11,18,20-nonaene], the IC50 is 0.128 µM in assay [1]; 0.155 µM in assay [2]; 0.18 µM in assay [3]; 0.159 µM in assay [4]; 0.033 µM in assay [5].
